Experimental data published in patent US12115209B2, “ROMO1-derived antimicrobial peptides including lysine substitution and variants thereof” (KOREA UNIVERSITY RESEARCH AND BUSINESS FOUNDATION, priority 2019, dated 2024).
No end group written: not given here.

Columns and labels:
CRPA = experiment: Minimum bactericidal concentration (MBC) assay; format: cell-based; conditions: Tables 11-21, no unit printed
[1] = system: Pseudomonas aeruginosa (ATCC 27853); experiment: Minimum bactericidal concentration (MBC) assay; format: cell-based; conditions: Tables 11-21, no unit printed
Procedure, shortened: (§1)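 MBC taken as the lowest peptide level leaving no colonies on TS agar after 18 h at 37° C. Beforehand, 1×10^5 CFU/ml of each strain in sodium phosphate buffer with 1% TSB was treated 1 h at 37° C with peptide over 0-300 μg/ml.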

mouse red blood cells = format: cell-based
Protocol: Red blood cells were diluted with PBS, centrifuged 3 times at 900 g for 10 minutes, and washed. 100 μl of the diluted red blood cell solution (10% v/v PBS) was dispensed into each well of a 96-well microplate, and KU-5878, KU-5878-K4, KU-5878-K4-D, melittin, magainin 2 or daptomycin was added to each well which was then filled with PBS to 200 μl, followed by reaction by incubation at 37° C. for 1 hour. Then, the supernatant of the reaction solution was separated, and the absorbance at a wavelength of 550 nm was measured using a spectrophotometer. As control, PBS and 0.1% Triton X-100 (Triton X-100) solution were used.
Based on the results of measurement of the absorbance, the degree of red blood cell destruction was calculated according to Equation 1 below, and the results of the calculation are shown in FIG. 6. % The intact RBC=100(%)−[(absorbance of peptide-treated red blood cell solution−absorbance of PBS-treated red blood cell solution)/(absorbance of Triton X-100-treated red blood cell solution−absorbance of PBS-treated red blood cell solution)×100(%)] [Equation 1]

[2] = system: Methicillin-resistant Staphylococcus aureus (MRSA, ATCC 33591); experiment: Minimum bactericidal concentration (MBC) assay; format: cell-based; conditions: Tables 11-21, no unit printed
Procedure, shortened: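 Peptide at 0 to 300 μg/ml reacted 1 h at 37 °C with 1×10^5 CFU/ml bacteria in SP buffer (10 mM sodium phosphate, 1% TSB), bacteria pre-grown in 3% TSB. Aliquots then spread on TS agar and checked for colonies after 18 h at 37 °C.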

[3] = system: Staphylococcus aureus, Pseudomonas aeruginosa, Klebsiella pneumoniae and Acinetobacter baumannii; experiment: Survival rate of mice injected with gram-positive or gram-negative bacteria; format: in vivo, mice (C57BL/6); conditions: mice injected with gram-positive or gram-negative bacteria (FIG. 3)
Excerpt: Following Example 2-2, in order to evaluate the antibacterial activity of the KU-5878 peptide in vivo, Staphylococcus aureus as gram-positive bacteria, Pseudomonas aeruginosa, Klebsiella pneumoniae and Acinetobacter baumannii as gram-negative bacteria, and multidrug-resistant Pseudomonas aeruginosa, methicillin-resistant Staphylococcus aureus, multidrug-resistant Klebsiella pneumoniae and multidrug-resistant Acinetobacter baumannii as multidrug-resistant bacteria were selected, and the following experiment was performed.
The experimental method is as described in Example 2-2 above. For a positive group, each type of the bacteria was injected into mice, and after 24 hours, 30 mg/kg of imipenem, a carbapenem-based antibiotic, was injected intraperitoneally (IP), and then the same amount of imipenem was administered intraperitoneally a total of 4 times at 12-hour intervals. The survival rates of each control group and the experimental group were measured at 24-hour intervals.

[4] = system: Staphylococcus aureus (ATCC 29213); experiment: Minimum bactericidal concentration (MBC) assay; format: cell-based; conditions: Tables 11-21, no unit printed
Procedure, shortened: as §1

KTMMQSGGTFGTFMAIGMGIR [KU-5878] was tested, and the MBC CRPA (CRPA) was 110 µg/mL, the MBC Pseudomonas aeruginosa [1] was 100 µg/mL and the “hemolysis of red blood cells” value (mouse red blood cells) was “little hemolysis even at a high concentration”. It also gave an MBC MRSA [2] of 110 µg/mL, an MBC MRSA ([2]; listed as 5878) of 100 µg/mL and a survival rate [3] of 60%. It also gave an MBC Staphylococcus aureus [4] of 100 µg/mL.
